In PubChem BioAssay AID330 (DTP/NCI, 2004):
Values joined by “and” are separate entries in the source; they are usually repeats but may differ in a detail not shown here. Equal entries are not always repeated. Toxic doses and inconclusive results are not listed.

System: P388 leukemia ip, CD2F1 mice, survival T/C
Experiment: NCI In Vivo Anticancer Drug Screen. Data for tumor model P388 Leukemia (intraperitoneal) in CD2F1 (CDF1) mice
Conditions: endpoint: median survival time, higher = longer survival
In short: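 Mice carrying the transplanted tumor received test compound or vehicle. Survival was recorded in each group, and the value is the treated-group measurement divided by that of the vehicle-treated control group.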

[1] = dose: 100.0 mg/kg/injection, schedule: Q01DX001 (ip), vehicle: Klucel (hydroxypropylcellulose) (HPC)
[2] = dose: 200.0 mg/kg/injection, schedule: Q01DX001 (ip), vehicle: Klucel (hydroxypropylcellulose) (HPC)
[3] = dose: 400.0 mg/kg/injection, schedule: Q01DX001 (ip), vehicle: Klucel (hydroxypropylcellulose) (HPC)
[4] = dose: 100.0 mg/kg/injection, schedule: Q01DX009 (ip), vehicle: Klucel (hydroxypropylcellulose) (HPC)
[5] = dose: 200.0 mg/kg/injection, schedule: Q01DX009 (ip), vehicle: Klucel (hydroxypropylcellulose) (HPC)
[6] = dose: 50.0 mg/kg/injection, schedule: Q01DX005 (ip), vehicle: Klucel (hydroxypropylcellulose) (HPC)
[7] = dose: 100.0 mg/kg/injection, schedule: Q01DX005 (ip), vehicle: Klucel (hydroxypropylcellulose) (HPC)
[8] = dose: 200.0 mg/kg/injection, schedule: Q01DX005 (ip), vehicle: Klucel (hydroxypropylcellulose) (HPC)
[9] = dose: 50.0 mg/kg/injection, schedule: Q01DX005 (ip), vehicle: saline with Tween-80
[10] = dose: 100.0 mg/kg/injection, schedule: Q01DX009 (ip), vehicle: saline
[11] = dose: 200.0 mg/kg/injection, schedule: Q01DX009 (ip), vehicle: saline
[12] = dose: 50.0 mg/kg/injection, schedule: Q01DX009 (ip), vehicle: saline with Tween-80
[13] = dose: 100.0 mg/kg/injection, schedule: Q01DX009 (ip), vehicle: saline with Tween-80
[14] = dose: 25.0 mg/kg/injection, schedule: Q01DX009 (ip), vehicle: Klucel (hydroxypropylcellulose) (HPC)
[15] = dose: 50.0 mg/kg/injection, schedule: Q01DX009 (ip), vehicle: saline
[16] = dose: 50.0 mg/kg/injection, schedule: Q01DX009 (ip), vehicle: Klucel (hydroxypropylcellulose) (HPC)
[17] = dose: 200.0 mg/kg/injection, schedule: Q01DX009 (ip), vehicle: saline with Tween-80
[18] = dose: 12.5 mg/kg/injection, schedule: Q01DX009 (ip), vehicle: saline with Tween-80
[19] = dose: 25.0 mg/kg/injection, schedule: Q01DX009 (ip), vehicle: saline with Tween-80
[20] = dose: 100.0 mg/kg/injection, schedule: Q04DX003 (ip), vehicle: saline with Tween-80
[21] = dose: 200.0 mg/kg/injection, schedule: Q04DX003 (ip), vehicle: saline with Tween-80
[22] = dose: 200.0 mg/kg/injection, schedule: Q01DX005 (ip), vehicle: saline with Tween-80
[23] = dose: 100.0 mg/kg/injection, schedule: Q01DX005 (ip), vehicle: saline with Tween-80

C=CC(C)(C)C1(O)Oc2cc(OC)ccc2C=C1c1ccccc1 (stereo not drawn)
T/C [1]: 101 % of control | T/C [2]: 101 % of control | T/C [3]: 91 % of control

O=c1oc(-c2ccccc2I)ns1
T/C [4]: 113 % of control | T/C [5]: 114 % of control | T/C (dose: 400.0 mg/kg/injection, schedule: Q01DX009 (ip), vehicle: Klucel (hydroxypropylcellulose) (HPC)): 96 % of control

CCC(=O)Nc1nnc(SCCCCCCCCCCCCSc2nnc(NC(=O)CC)s2)s1
T/C [6]: 96 % of control | T/C [7]: 88 % of control | T/C [8]: 87 % of control

CCCCN(CCCC)CCCNc1c2c(nc3ccc(Cl)cc13)CCCC2
T/C (dose: 12.5 mg/kg/injection, schedule: Q01DX005 (ip), vehicle: saline with Tween-80): 102 % of control | T/C (dose: 25.0 mg/kg/injection, schedule: Q01DX005 (ip), vehicle: saline with Tween-80): 104 % of control | T/C [9]: 99 % of control and 101 % of control

COC(=O)C1CC(NO)CN1S(=O)(=O)c1ccc(C)cc1 (stereo not drawn)
T/C (dose: 100.0 mg/kg/injection, schedule: Q04DX002 (ip), vehicle: saline with Tween-80): 99 % of control | T/C (dose: 200.0 mg/kg/injection, schedule: Q04DX002 (ip), vehicle: saline with Tween-80): 95 % of control | T/C (dose: 400.0 mg/kg/injection, schedule: Q04DX002 (ip), vehicle: saline with Tween-80): 93 % of control

O=C(N/N=C/c1ccccc1O)c1cccc([N+](=O)[O-])c1
T/C [10]: 99 % of control | T/C [11]: 100 % of control | T/C (dose: 400.0 mg/kg/injection, schedule: Q01DX009 (ip), vehicle: saline): 91 % of control

Nn1cnc2nc[nH]c2c1=O
T/C (dose: 100.0 mg/kg/injection, schedule: Q01DX001 (ip), vehicle: saline with Tween-80): 101 % of control | T/C (dose: 200.0 mg/kg/injection, schedule: Q01DX001 (ip), vehicle: saline with Tween-80): 104 % of control | T/C (dose: 400.0 mg/kg/injection, schedule: Q01DX001 (ip), vehicle: saline with Tween-80): 95 % of control

O=C1OC2(CCCC2)OC(=O)C1=Cc1ccc([N+](=O)[O-])s1
T/C [12]: 115 % of control | T/C [13]: 114 % of control

O=[N+]([O-])c1ccc(S(=O)/N=C/c2ccccc2)c([N+](=O)[O-])c1 (stereo not drawn)
T/C (dose: 12.5 mg/kg/injection, schedule: Q01DX009 (ip), vehicle: Klucel (hydroxypropylcellulose) (HPC)): 119 % of control | T/C [14]: 118 % of control

Cc1ccc2c(c1)C1(C)OC(C=CC1S(=O)c1ccccc1)O2 (stereo not drawn)
T/C [6]: 102 % of control | T/C [7]: 101 % of control | T/C [8]: 113 % of control

CC(C)(C)c1cc(C(C)(C)C)c(=O)oc(=O)c1
T/C [6]: 98 % of control | T/C [7]: 98 % of control

CN(C)CCC1C2CC3CC(C2)CC1C3 (stereo not drawn)
T/C [15]: 94 % of control | T/C [10]: 94 % of control

Clc1ccc(N2C=Nc3ccc(Cl)cc3C2)cc1
T/C [16]: 100 % of control | T/C [4]: 97 % of control | T/C [5]: 98 % of control

Cc1cc2c(cc1[N+](=O)[O-])NC(CNC(C)C)CC2 (stereo not drawn)
T/C [12]: 101 % of control | T/C [13]: 105 % of control | T/C [17]: 108 % of control

CNC(=O)n1cc(Cl)ccc1=O
T/C [15]: 100 % of control and 108 % of control | T/C [10]: 100 % of control and 107 % of control | T/C [11]: 119 % of control

C/C(COc1ccc([N+](=O)[O-])cc1)=N/NS(=O)(=O)c1cc(Cl)c(Cl)cc1Cl
T/C (dose: 12.5 mg/kg/injection, schedule: Q01DX009 (ip), vehicle: saline): 101 % of control | T/C (dose: 25.0 mg/kg/injection, schedule: Q01DX009 (ip), vehicle: saline): 102 % of control | T/C [15]: 99 % of control and 87 % of control

CC(/C=C/c1ccccc1)=N\NC(=O)C(N)=O
T/C [18]: 97 % of control | T/C [19]: 97 % of control | T/C [12]: 96 % of control | T/C [15]: 100 % of control | T/C [10]: 91 % of control | T/C [11]: 98 % of control

COC1/C=C\OC2(C)Oc3c(C)c(O)c4c(c3C2=O)C2=NC(C)(C)N(c3ccccc3)C2=C(NC(=O)/C(C)=C\C=C\C(C)C(O)C(C)C(O)C(C)C(OC(C)=O)C1C)C4=O (stereo not drawn)
T/C [14]: 100 % of control | T/C [16]: 103 % of control | T/C [4]: 98 % of control | T/C [5]: 107 % of control

C/C=C1/CNC2Cc3c([nH]c4ccccc34)C(c3ccc4c5c([nH]c4c3)C3CC4CC(CC)C3N(CC5)C4)CC1C2C(=O)OC (stereo not drawn)
T/C (dose: 2.5 mg/kg/injection, schedule: Q01DX009 (ip), vehicle: saline): 106 % of control | T/C (dose: 5.0 mg/kg/injection, schedule: Q01DX009 (ip), vehicle: saline): 100 % of control

CC(=O)NCCN=Cc1ccccc1
T/C [20]: 100 % of control | T/C [21]: 100 % of control | T/C (dose: 400.0 mg/kg/injection, schedule: Q04DX003 (ip), vehicle: saline with Tween-80): 100 % of control

CCCOc1ccc(-c2nc(-c3ccc(N=Cc4ccc(N(CCOS(C)(=O)=O)CCOS(C)(=O)=O)cc4C)cc3)cs2)cc1
T/C (dose: 3.12 mg/kg/injection, schedule: Q01DX009 (ip), vehicle: saline with Tween-80): 160 % of control | T/C (dose: 6.25 mg/kg/injection, schedule: Q01DX009 (ip), vehicle: saline with Tween-80): 180 % of control | T/C [18]: 156 % of control and 166 % of control and 197 % of control | T/C [19]: 164 % of control | T/C [12]: 110 % of control and 118 % of control

N#C/C(=N\NC(=O)c1cccc(C(=O)N/N=C(\C#N)c2ccccc2Cl)n1)c1ccccc1Cl
T/C (dose: 1.5 mg/kg/injection, schedule: Q01DX005 (ip), vehicle: saline with Tween-80): 92 % of control | T/C (dose: 3.0 mg/kg/injection, schedule: Q01DX005 (ip), vehicle: saline with Tween-80): 94 % of control | T/C (dose: 6.0 mg/kg/injection, schedule: Q01DX005 (ip), vehicle: saline with Tween-80): 94 % of control | T/C (dose: 6.25 mg/kg/injection, schedule: Q01DX005 (ip), vehicle: saline with Tween-80): 91 % of control | T/C [22]: 100 % of control

C[C@H]1CC(=O)C[C@H]2CCCCN21
T/C (dose: 12.5 mg/kg/injection, schedule: Q01DX005 (ip), vehicle: saline): 103 % of control | T/C (dose: 25.0 mg/kg/injection, schedule: Q01DX005 (ip), vehicle: saline): 105 % of control | T/C (dose: 50.0 mg/kg/injection, schedule: Q01DX005 (ip), vehicle: saline): 101 % of control

NCCCCC(C(=O)O)N(C(=O)OCc1ccccc1)C(=O)OCc1ccccc1 (stereo not drawn)
T/C [9]: 106 % of control | T/C [23]: 101 % of control | T/C [22]: 97 % of control

CC(=O)CC(=O)CCCCCCCCCCCC(=O)O
T/C [12]: 94 % of control | T/C [13]: 98 % of control | T/C [17]: 103 % of control

Cc1ccc2c(=O)n3cc(CCC#N)cc3c(=O)[nH]c2c1O
T/C [1]: 99 % of control | T/C [2]: 89 % of control | T/C [3]: 92 % of control

Cc1cnc(C=O)c2cccc([N+](=O)[O-])c12
T/C [16]: 105 % of control | T/C [4]: 112 % of control

N#CCSCC(N)C(=O)O (stereo not drawn)
T/C [9]: 103 % of control | T/C [23]: 105 % of control | T/C [22]: 105 % of control

CCOc1ccc(C(C)c2cc3c(cc2OCCO)OCO3)cc1 (stereo not drawn)
T/C (dose: 12.5 mg/kg/injection, schedule: Q01DX005 (ip), vehicle: Klucel (hydroxypropylcellulose) (HPC)): 109 % of control | T/C (dose: 25.0 mg/kg/injection, schedule: Q01DX005 (ip), vehicle: Klucel (hydroxypropylcellulose) (HPC)): 97 % of control | T/C [6]: 104 % of control | T/C [7]: 103 % of control | T/C [8]: 102 % of control

CCCCCCCCCCCCCCCCCC(=O)O.[Co]
T/C [12]: 87 % of control and 95 % of control and 97 % of control | T/C [13]: 100 % of control and 103 % of control and 97 % of control | T/C [17]: 92 % of control

O=C(Nc1ccccc1)ON=C1CCCCC1
T/C (dose: 60.0 mg/kg/injection, schedule: Q01DX005 (ip), vehicle: saline with Tween-80): 101 % of control | T/C (dose: 120.0 mg/kg/injection, schedule: Q01DX005 (ip), vehicle: saline with Tween-80): 96 % of control | T/C (dose: 240.0 mg/kg/injection, schedule: Q01DX005 (ip), vehicle: saline with Tween-80): 99 % of control

CCCCOC(=O)C(NC(N)=O)SC (stereo not drawn)
T/C (dose: 50.0 mg/kg/injection, schedule: Q04DX003 (ip), vehicle: saline with Tween-80): 95 % of control | T/C [20]: 100 % of control | T/C [21]: 99 % of control

O=C1CSC(c2cccc(Cl)c2)N1CCN1C(=O)CSC1c1cccc(Cl)c1 (stereo not drawn)
T/C [9]: 100 % of control | T/C [23]: 93 % of control | T/C [22]: 86 % of control
